Assay results as given in BindingDB's records for doi:10.1021/jm030603w (Purdue Pharma, 2005).
Values joined by “and” are separate entries in the source; they are usually repeats but may differ in a detail not shown here. Identical values can stand only once. Counter-ions that a name gives are not always drawn.

Columns and labels:
Assay in all cases: PDE Activity Assay
[1] = target: cAMP-specific 3',5'-cyclic phosphodiesterase 4B (Homo sapiens, UniProt Q07343)
[2] = target: cAMP-specific 3',5'-cyclic phosphodiesterase 4A (Homo sapiens, UniProt P27815); details: pH 8; 22 °C
Chain of cAMP-specific 3',5'-cyclic phosphodiesterase 4A (P27815 whole entry): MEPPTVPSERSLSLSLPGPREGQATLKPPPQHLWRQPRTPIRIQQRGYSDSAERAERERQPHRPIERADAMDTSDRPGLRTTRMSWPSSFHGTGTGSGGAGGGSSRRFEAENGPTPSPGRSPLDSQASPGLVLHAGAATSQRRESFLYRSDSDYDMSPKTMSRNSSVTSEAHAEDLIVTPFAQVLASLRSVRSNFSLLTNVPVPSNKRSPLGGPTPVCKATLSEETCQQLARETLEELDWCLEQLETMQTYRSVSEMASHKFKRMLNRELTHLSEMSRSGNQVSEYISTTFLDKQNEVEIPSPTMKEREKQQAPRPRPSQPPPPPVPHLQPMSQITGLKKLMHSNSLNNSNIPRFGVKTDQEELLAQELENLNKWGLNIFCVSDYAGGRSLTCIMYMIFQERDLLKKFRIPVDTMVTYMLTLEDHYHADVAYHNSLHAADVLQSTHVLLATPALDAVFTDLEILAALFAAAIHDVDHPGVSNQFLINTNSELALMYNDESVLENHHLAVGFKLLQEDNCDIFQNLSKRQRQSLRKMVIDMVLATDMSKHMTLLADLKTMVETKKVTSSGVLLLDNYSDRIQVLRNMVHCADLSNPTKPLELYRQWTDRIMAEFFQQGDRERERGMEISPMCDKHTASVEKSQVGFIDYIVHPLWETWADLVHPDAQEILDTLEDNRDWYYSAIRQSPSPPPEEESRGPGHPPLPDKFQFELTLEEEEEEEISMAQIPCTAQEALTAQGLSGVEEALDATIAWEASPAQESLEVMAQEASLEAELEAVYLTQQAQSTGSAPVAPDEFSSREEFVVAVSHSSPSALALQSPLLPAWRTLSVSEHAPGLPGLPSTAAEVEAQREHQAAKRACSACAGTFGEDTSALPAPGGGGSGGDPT

[3] = target: cAMP-specific 3',5'-cyclic phosphodiesterase 4D (Homo sapiens, UniProt Q08499)
Chain of cAMP-specific 3',5'-cyclic phosphodiesterase 4D (Q08499 whole entry): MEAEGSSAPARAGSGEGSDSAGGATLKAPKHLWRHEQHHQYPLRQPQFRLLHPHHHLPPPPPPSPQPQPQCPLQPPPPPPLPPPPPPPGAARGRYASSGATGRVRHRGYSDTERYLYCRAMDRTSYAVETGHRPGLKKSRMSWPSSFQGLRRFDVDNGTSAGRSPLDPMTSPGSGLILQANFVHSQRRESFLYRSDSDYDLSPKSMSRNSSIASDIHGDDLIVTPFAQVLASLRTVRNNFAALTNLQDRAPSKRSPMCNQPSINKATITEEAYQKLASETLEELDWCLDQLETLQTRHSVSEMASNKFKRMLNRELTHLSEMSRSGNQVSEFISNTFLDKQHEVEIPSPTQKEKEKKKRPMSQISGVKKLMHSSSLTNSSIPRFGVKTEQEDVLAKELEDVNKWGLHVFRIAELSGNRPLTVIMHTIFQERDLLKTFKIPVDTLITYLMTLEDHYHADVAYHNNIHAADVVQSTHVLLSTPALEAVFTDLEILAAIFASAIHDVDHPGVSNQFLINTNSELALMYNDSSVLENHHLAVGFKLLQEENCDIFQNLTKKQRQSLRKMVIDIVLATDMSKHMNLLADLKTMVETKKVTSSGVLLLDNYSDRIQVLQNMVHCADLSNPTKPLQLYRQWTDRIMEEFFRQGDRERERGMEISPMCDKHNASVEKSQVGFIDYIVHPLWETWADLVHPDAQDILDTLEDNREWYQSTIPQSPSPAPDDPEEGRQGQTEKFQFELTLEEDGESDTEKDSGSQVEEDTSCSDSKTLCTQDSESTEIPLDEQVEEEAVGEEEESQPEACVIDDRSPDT

Chain of cAMP-specific 3',5'-cyclic phosphodiesterase 4B (Q07343 whole entry): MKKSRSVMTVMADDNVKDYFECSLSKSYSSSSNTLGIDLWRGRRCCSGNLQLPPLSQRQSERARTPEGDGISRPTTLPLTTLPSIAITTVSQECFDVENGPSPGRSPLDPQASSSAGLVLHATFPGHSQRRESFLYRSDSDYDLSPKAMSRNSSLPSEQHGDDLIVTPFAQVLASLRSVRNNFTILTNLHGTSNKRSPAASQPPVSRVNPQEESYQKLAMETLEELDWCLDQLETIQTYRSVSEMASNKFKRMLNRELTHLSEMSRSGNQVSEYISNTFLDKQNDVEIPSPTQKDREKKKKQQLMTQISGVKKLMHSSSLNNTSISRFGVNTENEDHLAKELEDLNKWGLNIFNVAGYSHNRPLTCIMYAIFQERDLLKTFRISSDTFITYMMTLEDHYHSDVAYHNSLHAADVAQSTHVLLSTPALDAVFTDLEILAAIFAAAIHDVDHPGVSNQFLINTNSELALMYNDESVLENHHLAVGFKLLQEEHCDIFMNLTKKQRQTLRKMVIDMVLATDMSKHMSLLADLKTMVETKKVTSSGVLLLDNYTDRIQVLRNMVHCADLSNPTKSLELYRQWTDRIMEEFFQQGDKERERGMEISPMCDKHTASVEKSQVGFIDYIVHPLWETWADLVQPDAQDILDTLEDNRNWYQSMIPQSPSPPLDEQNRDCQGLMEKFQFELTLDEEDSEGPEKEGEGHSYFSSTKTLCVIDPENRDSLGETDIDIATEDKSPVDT

Row | Compound | Ki [1] [µM] | Ki [2] [µM] | Ki [3]
1 | COc1ccccc1COC(C)(C)c1nc2c(N)ncn(Cc3ccc(OC)c(OC4CCCC4)c3)c-2n1 [3-(3-Cyclopentyloxy-4-methoxy-benzyl)-8-[1-(2-methoxy-benzyloxy)-1-methyl-ethyl]-3H-purine-6-ylamine] | 0.011 | 0.137 | 
2 | COc1ccc(Cn2cnc(N)c3nc(C(C)(C)OCc4ccc(F)c(F)c4)nc2-3)cc1OC1CCCC1 [3-(3-Cyclopentyloxy-4-methoxy-benzyl)-8-[1-(3,4-difluoro-benzyloxy)-1-methyl-ethyl]-3Hpurin-6-ylamine Fumarate] | 0.0173 | 0.244 | 
3 | COc1ccc(COC(C)(C)c2nc3c(N)ncn(Cc4ccc(OC)c(OC5CCCC5)c4)c-3n2)cc1OC [3-(3-Cyclopentyloxy-4-methoxy-benzyl)-8-[1-(3,4-dimethoxy-benzyloxy)-1-methyl-ethyl]-3Hpurin-6-ylamine Fumarate] | 0.0428 | 0.405 | 
4 | COc1ccc(Cn2cnc(N)c3nc(C(C)(C)OCc4ccc5c(c4)OCO5)nc2-3)cc1OC1CCCC1 [3-(3-Cyclopentyloxy-4-methoxy-benzyl)-8-[1-(3,4-methylenedioxy-benzyloxy)-1-methyl-ethyl]-3Hpurin-6-ylamine] | 0.0214 | 0.147 | 
5 | COc1ccc(Cn2cnc(N)c3nc(C(C)(C)OCc4cccc(F)c4)nc2-3)cc1OC1CCCC1 [3-(3-Cyclopentyloxy-4-methoxy-benzyl)-8-[1-(3-fluoro-benzyloxy)-1-methyl-ethyl]-3H-purin-6-ylamine] | 0.0116 | 0.208 | 
6 | COc1ccc(Cn2cnc(N)c3nc(C(C)(C)OCc4ccc(C#N)cc4)nc2-3)cc1OC1CCCC1 [3-(3-Cyclopentyloxy-4-methoxy-benzyl)-8-[1-(4-cyano-benzyloxy)-1-methyl-ethyl]-3Hpurin-6-ylamine] | 0.0713 | 1.19 | 
7 | COc1ccc(COC(C)c2nc3c(N)ncn(Cc4ccc(OC)c(OC5CCCC5)c4)c-3n2)cc1 (stereo not given) [3-(3-Cyclopentyloxy-4-methoxy-benzyl)-8-[1-(4-methoxy-benzyloxy)-ethyl]-3H-purin-6-ylamine] | 0.43 | 5.2 | 
8 | COc1ccc(Cn2cnc(N)c3nc(C(C)(C)OCc4ccc(C)cc4)nc2-3)cc1OC1CCCC1 [3-(3-Cyclopentyloxy-4-methoxy-benzyl)-8-[1-(4-methyl-benzyloxy)-1-methyl-ethyl]-3H-purin-6-ylamine] | 0.0098 | 0.206 | 
9 | COc1ccc(Cn2cnc(N)c3nc(C(C)(C)OCc4ccc(C(C)(C)C)cc4)nc2-3)cc1OC1CCCC1 [3-(3-Cyclopentyloxy-4-methoxy-benzyl)-8-[1-(4-tert-butyl-benzyloxy)-1-methyl-ethyl]-3Hpurin-6-ylamine] | 0.0058 | 0.175 | 
10 | COc1ccc(Cn2cnc(N)c3nc(C(C)(C)OCc4ccc(OC(F)(F)F)cc4)nc2-3)cc1OC1CCCC1 [3-{[3-(cyclopentyloxy)-4-methoxyphenyl]methyl}-8-(2-{[4-(trifluoromethoxy)phenyl]methoxy}propan-2-yl)-3H-purin-6-amine] | 0.0266 | 0.415 | 
11 | COc1ccc(Cn2cnc(N)c3nc(C(C)(C)OCc4ccc(C(F)(F)F)cc4)nc2-3)cc1OC1CCCC1 [3-{[3-(cyclopentyloxy)-4-methoxyphenyl]methyl}-8-(2-{[4-(trifluoromethyl)phenyl]methoxy}propan-2-yl)-3H-purin-6-amine] | 0.033 | 0.309 | 
12 | COc1ccc(Cn2cnc(N)c3nc(C(C)(C)COc4cccs4)nc2-3)cc1OC1CCCC1 [3-{[3-(cyclopentyloxy)-4-methoxyphenyl]methyl}-8-[2-methyl-1-(thiophen-2-yloxy)propan-2-yl]-3H-purin-6-amine] | 0.0469 | 0.236 | 
13 | COc1ccc(Cn2cnc(N)c3nc(C(C)(C)COc4ccsc4)nc2-3)cc1OC1CCCC1 [3-{[3-(cyclopentyloxy)-4-methoxyphenyl]methyl}-8-[2-methyl-1-(thiophen-3-yloxy)propan-2-yl]-3H-purin-6-amine] | 0.0095 | 0.223 | 

Other lines, results leading:

Row | Ki [1] [µM] | Ki [2] [µM] | Ki [3] | Compound
14 | 0.269 | 3.39 |  | COc1ccc(Cn2cnc(N)c3nc(C(C)OCc4ccc(F)cc4)nc2-3)cc1OC1CCCC1 (stereo not given) [3-{[3-(cyclopentyloxy)-4-methoxyphenyl]methyl}-8-{1-[(4-fluorophenyl)methoxy]ethyl}-3H-purin-6-amine]
15 | 0.0189 | 0.271 |  | COc1ccc(Cn2cnc(N)c3nc(C(C)(C)OCc4ccccc4F)nc2-3)cc1OC1CCCC1 [3-{[3-(cyclopentyloxy)-4-methoxyphenyl]methyl}-8-{2-[(2-fluorophenyl)methoxy]propan-2-yl}-3H-purin-6-amine]
16 | 0.0097 | 0.166 |  | COc1ccc(Cn2cnc(N)c3nc(C(C)(C)OCc4ccc(Cl)c(Cl)c4)nc2-3)cc1OC1CCCC1 [3-{[3-(cyclopentyloxy)-4-methoxyphenyl]methyl}-8-{2-[(3,4-dichlorophenyl)methoxy]propan-2-yl}-3H-purin-6-amine]
17 | 0.013 | 0.175 |  | COc1cccc(COC(C)(C)c2nc3c(N)ncn(Cc4ccc(OC)c(OC5CCCC5)c4)c-3n2)c1 [3-{[3-(cyclopentyloxy)-4-methoxyphenyl]methyl}-8-{2-[(3-methoxyphenyl)methoxy]propan-2-yl}-3H-purin-6-amine]
18 | 0.0103 | 0.113 |  | COc1ccc(COC(C)(C)c2nc3c(N)ncn(Cc4ccc(OC)c(OC5CCCC5)c4)c-3n2)cc1 [3-{[3-(cyclopentyloxy)-4-methoxyphenyl]methyl}-8-{2-[(4-methoxyphenyl)methoxy]propan-2-yl}-3H-purin-6-amine]
19 | 0.533 | 15.2 | 4.45 µM and 0.64 µM and 0.59 µM | COc1ccc(Cn2cnc(N)c3nc(C(C)OCc4ccccc4)nc2-3)cc1OC1CCCC1 (stereo not given) [8-[1-(benzyloxy)ethyl]-3-{[3-(cyclopentyloxy)-4-methoxyphenyl]methyl}-3H-purin-6-amine]
20 | 0.0089 | 0.179 |  | COc1ccc(Cn2cnc(N)c3nc(C(C)(C)OCc4ccccc4)nc2-3)cc1OC1CCCC1 [8-[2-(benzyloxy)propan-2-yl]-3-{[3-(cyclopentyloxy)-4-methoxyphenyl]methyl}-3H-purin-6-amine hydrochloride]
21 | 0.011 | 0.126 |  | COc1ccc(Cn2cnc(N)c3nc(C(C)(C)OCc4ccc(Cl)cc4)nc2-3)cc1OC1CCCC1 [8-{1-[(4-Chlorobenzyl)oxy]-1-methyl-ethyl}-3-[3-cyclopentyloxy)-4-methoxybenzyl]-3H-purin-6-amine]
22 | 0.0219 | 0.225 |  | COc1cc(COC(C)(C)c2nc3c(N)ncn(Cc4ccc(OC)c(OC5CCCC5)c4)c-3n2)cc(OC)c1 [(2E)-but-2-enedioic acid; 3-{[3-(cyclopentyloxy)-4-methoxyphenyl]methyl}-8-{2-[(3,5-dimethoxyphenyl)methoxy]propan-2-yl}-3H-purin-6-amine]
